Patent publication US7169792B2, “Method of treating bacterial infections using gemifloxacin or a salt thereof and a β-lactam antibiotic” (priority 2002, dated 2007)
Like-named read-outs stand apart in the source and are kept apart here.

Test system: clinically isolated P. aeruginosa strains
Test: checkerboard method, gemifloxacin or ciprofloxacin with ceftazidime, 6 clinical isolates (Example 5)
Format: cell-based, Pseudomonas aeruginosa
Details: for FICA: FIC of gemifloxacin; for Cgemifloxacin MIC: in combination with ceftazidime; for MIC: Pseudomonas aeruginosa, drug alone, read-out: gemifloxacin MIC
Protocol: Minimal inhibitory concentrations (MICs) for each separate drug were determined. For wells along the growth-no growth interface, synergy was determined by calculating the Fractional Inhibitory Concentration (FIC) index. The Fractional Inhibitory Concentration (FIC) indices were calculated using the following formula: FICindex=FICA+FICB=[A]/MICA+[B]/MICB • Wherein: • FICA(or B), is the FIC of drug A (or B) MICA (or B) is the MIC of the organism to drug A (or B) • A (or B) is concentration of drug A (or B) that is the lowest inhibitory concentration
The FIC indices were interpreted using the following criteria: • ≦0.5=Synergy • >0.5–1.0=Additive • >1.0–4.0=Indifference • >4.0=Antagonism
The test organisms were clinical isolates collected in Korea. Organisms were frozen at −70 C. prior to testing. […] Gemifloxacin or ciprofloxacin solution was dispensed alone in the first row and combined with ceftazidime in the remaining rows. Ceftazidime as also dispensed alone in the first row in the first column. Test strains of P. aeruginosa were grown for 18 h in Mueller-Hinton broth, and then these overnight cultures were diluted with the same fresh medium to the density of approximately 10^7 CFU/mL. The bacterial concentrations were determined by measuring optical density or turbidity of the suspension and were verified by standard colony counts on antibiotic-free agar plates. A diluted bacterial solution was applied to 96-well plates containing serially diluted antimicrobial agents to yield 5×10^5 CFU/mL. Plates were incubated at 35 C for 18 hours.
MICs for each separate drug were determined, and for wells along the growth-no growth interface, synergy was determined by calculating FIC Indices as in Example 4. FIC Indices were calculated and interpreted as in Example 4.

Compound: CO/N=C1\CN(c2nc3c(cc2F)c(=O)c(C(=O)O)cn3C2CC2)CC1CN (racemic) [gemifloxacin, (R,S)-7-(3-aminomethyl-4-methoxyiminopyrrolidin-1-yl)-1-cyclopropyl-6-fluoro-4-oxo-1,4-dihydro-1,8-naphthyridine-3-carboxylic acid]
- FICA (P. aeruginosa 6140): 0.06
- Cgemifloxacin MIC (P. aeruginosa 6140): 0.5 µg/mL
- FICA (P. aeruginosa 6168): 0.13
- Cgemifloxacin MIC (P. aeruginosa 6168): 0.0625 µg/mL
- FICA (P. aeruginosa P003): 0.06
- Cgemifloxacin MIC (P. aeruginosa P003): 0.125 µg/mL
- MIC (P. aeruginosa 6140): 8 µg/mL
- MIC (P. aeruginosa 6168): 0.5 µg/mL
- MIC (P. aeruginosa P003): 2 µg/mL
